In ChEMBL document CHEMBL1201862, “PubChem BioAssay data set” (2004):
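Cultured in 96-well plates, cells were exposed to test compound for 48 hours across five concentrations. GI50 = concentration required for 50% inhibition of growth.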 Activity calls are given as the source filed them. Rule as the data show it: active = GI50 up to about 1.1 µM and inactive = higher.

Legend:
Experiment in all cases: NCI tumour cell line growth inhibition, 48 h
A549 = tested on: A549
COLO 205 = tested on: COLO 205
HCT-15 = tested on: HCT-15
HL-60 = tested on: HL-60
HT-29 = tested on: HT-29
IGROV-1 = tested on: IGROV-1
KM12 = tested on: KM12
M14 = tested on: M14
MOLT-4 = tested on: MOLT-4
OVCAR-3 = tested on: OVCAR-3
OVCAR-4 = tested on: OVCAR-4
RXF 393 = tested on: RXF 393
SK-MEL-5 = tested on: SK-MEL-5
SNB-19 = tested on: SNB-19
HOP-92 = tested on: HOP-92

| Structure (SMILES) | GI50 (A549) | GI50 (COLO 205) | GI50 (HCT-15) [µM] | GI50 (HL-60) | GI50 (HT-29) | GI50 (IGROV-1) | GI50 (KM12) | GI50 (M14) | GI50 (MOLT-4) | GI50 (OVCAR-3) | GI50 (OVCAR-4) | GI50 (RXF 393) | GI50 (SK-MEL-5) | GI50 (SNB-19) | GI50 (HOP-92) |
| --- | --- | --- | --- | --- | --- | --- | --- | --- | --- | --- | --- | --- | --- | --- | --- |
| CC(=O)Nc1ccc(-c2nnc(SCC(=O)Nc3ccc(Cl)cc3)o2)cc1 | 16.8 µM (inactive) | 17.6 µM (inactive) | 13.9 | 16.3 µM (inactive) | 10.6 µM (inactive) | 12.2 µM (inactive) | 13.7 µM (inactive) | 14.5 µM (inactive) | 11.2 µM (inactive) | 9.06 µM (inactive) | 13.1 µM (inactive) | 10 µM (inactive) | 5.69 µM (inactive) | 20 µM (inactive) |  |
| CC(=O)O[C@H]1CC[C@@]2(C)C(=CC[C@@H]3C2CC[C@]2(C)Nc4nc5ccccc5cc4CC32)C1 (stereo partly specified) | 3.34 µM (inactive) | 7.66 µM (inactive) | 2.51 | 4.32 µM (inactive) | 1.82 µM (inactive) | 11.7 µM (inactive) | 3.88 µM (inactive) | 2.19 µM (inactive) | 3.3 µM (inactive) | 2.5 µM (inactive) | 8.53 µM (inactive) | 2.07 µM (inactive) | 4.1 µM (inactive) | 2.97 µM (inactive) |  |
| COc1ccc(C2S/C(=C\c3ccc(OC)cc3OC)C(=O)N2NC(=O)Cc2ccccc2)cc1 (stereo unspecified) | > 100 µM (inactive) | > 100 µM (inactive) | > 100 | 97.9 µM (inactive) | > 100 µM (inactive) | > 100 µM (inactive) | > 100 µM (inactive) | > 100 µM (inactive) | > 100 µM (inactive) |  | > 100 µM (inactive) | > 100 µM (inactive) | > 100 µM (inactive) |  | > 100 µM (inactive) |
| CC(C)(c1ccccc1)c1ccc(Oc2ccc3c(c2)-c2nc-3nc3[nH]c(nc4nc(nc5[nH]c(n2)c2ccc(Oc6ccc(C(C)(C)c7ccccc7)cc6)cc52)-c2cc(Oc5ccc(C(C)(C)c6ccccc6)cc5)ccc2-4)c2ccc(Oc4ccc(C(C)(C)c5ccccc5)cc4)cc32)cc1 | > 100 µM (inactive) | > 100 µM (inactive) |  | > 100 µM (inactive) | > 100 µM (inactive) | > 100 µM (inactive) | > 100 µM (inactive) | > 100 µM (inactive) | > 100 µM (inactive) |  |  | 23.9 µM (inactive) | > 100 µM (inactive) | 92 µM (inactive) | 17.8 µM (inactive) |
| CN(C)CCONC(=O)C12CC3CC(CC(C3)C1)C2 | > 100 µM (inactive) | > 100 µM (inactive) | > 100 | > 100 µM (inactive) | > 100 µM (inactive) | > 100 µM (inactive) | > 100 µM (inactive) | > 100 µM (inactive) | > 100 µM (inactive) | > 100 µM (inactive) |  | > 100 µM (inactive) | > 100 µM (inactive) | > 100 µM (inactive) | > 100 µM (inactive) |
| Cc1nc2c(n1CCN(C)C)C(=O)c1ccccc1C2=O | 18.8 µM (inactive) | 4.47 µM (inactive) | 12.8 | 5.3 µM (inactive) | 10.4 µM (inactive) | 13.4 µM (inactive) | 15.2 µM (inactive) | 11.8 µM (inactive) | 19.7 µM (inactive) | 7.03 µM (inactive) | 15.6 µM (inactive) | 19.4 µM (inactive) | 7.45 µM (inactive) | 27.7 µM (inactive) |  |
| CCc1cccc(C(C)CC)c1/N=C(/NC(=O)c1ccccc1C(=O)N/C(=N/c1c(CC)cccc1C(C)CC)SC)SC (stereo unspecified) | 47.3 µM (inactive) | 40.6 µM (inactive) | 40.1 | 20.9 µM (inactive) | 40.4 µM (inactive) | 38.7 µM (inactive) | 36 µM (inactive) | 20 µM (inactive) | 29.2 µM (inactive) | 36.6 µM (inactive) | 54.3 µM (inactive) | 35.5 µM (inactive) |  | 49.8 µM (inactive) | 10.5 µM (inactive) |
| CCOc1ccccc1NC(=O)C(=O)c1c(O)c2ccc(O)cc2oc1=O | > 100 µM (inactive) | > 100 µM (inactive) | > 100 | > 100 µM (inactive) | > 100 µM (inactive) | > 100 µM (inactive) | > 100 µM (inactive) | > 100 µM (inactive) | > 100 µM (inactive) | > 100 µM (inactive) | > 100 µM (inactive) | > 100 µM (inactive) | > 100 µM (inactive) | > 100 µM (inactive) |  |
| Cc1ccc(S(=O)(=O)N/N=C/c2oc(-c3ccncc3)c(-c3ccncc3)c2[N+](=O)[O-])cc1 | > 100 µM (inactive) | > 100 µM (inactive) | > 100 | > 100 µM (inactive) | > 100 µM (inactive) | > 100 µM (inactive) | > 100 µM (inactive) | > 100 µM (inactive) | > 100 µM (inactive) | > 100 µM (inactive) | > 100 µM (inactive) | > 100 µM (inactive) | > 100 µM (inactive) | > 100 µM (inactive) |  |
| Clc1ccc(OCc2nnc3n2N=C(c2ccc(Br)cc2)CS3)cc1 | 25.5 µM (inactive) |  | 51.3 | > 100 µM (inactive) | 36.2 µM (inactive) |  | 80.7 µM (inactive) | > 10 µM (inactive) | > 100 µM (inactive) | > 10 µM (inactive) | 7.89 µM (inactive) | 12.1 µM (inactive) | > 10 µM (inactive) | 23.7 µM (inactive) | 11.2 µM (inactive) |
| CC1CCC(C(C)(C)c2ccccc2)C(=O)C1 (stereo unspecified) | > 100 µM (inactive) | > 100 µM (inactive) | > 100 | 25.6 µM (inactive) | > 100 µM (inactive) | > 100 µM (inactive) | > 100 µM (inactive) | > 100 µM (inactive) | > 100 µM (inactive) | > 100 µM (inactive) | > 100 µM (inactive) |  | > 100 µM (inactive) | > 100 µM (inactive) | 18.7 µM (inactive) |
| C/C(=C\c1ccccc1)C(O)S(=O)(=O)O (stereo unspecified) | > 100 µM (inactive) | > 100 µM (inactive) | > 100 | > 100 µM (inactive) | > 100 µM (inactive) | > 100 µM (inactive) | > 100 µM (inactive) | > 100 µM (inactive) | > 100 µM (inactive) | > 100 µM (inactive) | > 100 µM (inactive) | > 100 µM (inactive) | > 100 µM (inactive) | > 100 µM (inactive) |  |
| C=CCO[C@H]1CC[C@@]2(C)C(CC[C@]3(C)C2CC=C2[C@@H]4[C@@H](C)C(C)CC[C@]4(C(=O)O)CCC23C)C1(C)C (stereo partly specified) | 16.4 µM (inactive) | 16 µM (inactive) |  | 7.01 µM (inactive) | 16.3 µM (inactive) | 16.6 µM (inactive) | 16.1 µM (inactive) | 17.5 µM (inactive) |  | 15.7 µM (inactive) | 17.6 µM (inactive) | 6.05 µM (inactive) | 16.5 µM (inactive) | 17.1 µM (inactive) | 16.3 µM (inactive) |
| CCCCCC(=O)N[C@H]1CCc2cc(OC)c(OC)c(OC)c2-c2ccc(SC)c(=O)cc21 | 0.0306 µM (active) | 0.0122 µM (active) | 0.0209 | < 0.01 µM (active) | 0.0233 µM (active) | 0.0241 µM (active) | < 0.01 µM (active) | 0.016 µM (active) | 0.0516 µM (active) | 0.0153 µM (active) | 17.5 µM (inactive) |  | 0.014 µM (active) | 0.0258 µM (active) | < 0.01 µM (active) |
